Data from US20220280581A1, “BENEFICIAL BACTERIA AND SECRETORY IMMUNOGLOBULIN A” (priority 2019, published 2022).

Assays:
[1] = BLI persistence / colonization in mice (feces); format: in vivo, BALBc mice
Procedure: Mice: 6-week old female BALBc mice were purchased from The Jackson Labs. Mice were housed in an American Association for the Accreditation of Laboratory Animal Care-accredited facility, and procedures were conducted in compliance with the University of California Institutional Animal Care and Use Committee. Mice were co-housed 5 mice per cage in the Training and Research Animal Care Services vivarium at the University of California, Davis under conventional conditions with free access to standard chow RM1P (801151, Special Diet Services, Witham, England) and sterilized tap water with or without 2′FL. Mice were acclimated for 1 week prior to treatment. Mice were euthanized by decapitation following deep anesthesia with 100 mg/kg ketamine and 10 mg/kg xylazine administered by intraperitoneal injection.
Tissue Collection: Fecal samples were collected aseptically every 2 days for BLI detection. During necropsy, segments of duodenum, ileum, and colon were sectioned. First, Peyer's patches (PP) were collected and stored in 200 μL PBS in bead-beating tubes for homogenization and plating on blue/white screening agar. Duodenum, ileum, colon and cecum contents were collected into sterile tubes for bacterial analysis.
Bacterial plating and counting: PP, luminal contents and fecal samples were subjected to bead beating for 60 s at 4 m/s using a FastPrep homogenizer and 2 mm zirconium ceramic beads. Homogenate was serially diluted and plated on LB agar with kanamycin, x-gal and IPTG (blue-white screening agar) for differentiating JS107 and SJF10 strains, or further processed for DNA extraction and RT-qPCR for quantitation of BLI. […]
Strain-Specific qPCR: BLI was detected in fecal samples and intestinal contents following DNA extraction as described in Frese et al.^15 using the following primers: BLON0915F 5′[…]3′ and BLON0915R 5′ […]3′. […]

pooled human milk SIgA [2] = assay: Binding of SIgA to bacteria by flow cytometry; conditions: 100 μg SIgA to 1e6 cfu bacteria
[3] = system: colonocytes (Caco-2 / HT29-MTX E12 co-culture); assay: Colonocyte barrier function and immune gene expression (RT-qPCR); format: cell-based, human; conditions: for change of IL-8 expression when SIgA is first complexed to the bacteria / change of JAM expression when SIgA is first complexed: SIgA-complexed vs bacteria alone
Procedure: Mammalian cell culture binding assays: Caco-2 colonic cells were co-cultured with HT29-MTX E12 cells at a ratio of 3:1 and seeded at a density of 5×10^4 cells/well in 24-well plates, maintained as described above. On day 1 post-confluence, medium was removed, the cells washed once with PBS, and DMEM without FBS or antibiotics was added prior to binding assay. Bacteria were prepared as described above, with or without SIgA and resuspended in PBS at 1×10^7 CFU/mL. 4×10^5 CFU were added to the colonocytes and the plate was centrifuged at 600×g for 5 min to ensure bacteria association with the cells. After 2 h of incubation at 37° C. in 5% CO2, medium was removed and saved for cytokine analysis. Cells were washed once with PBS, and to one set of replicates, cells were lysed with 0.5% Triton X-100 and serial dilutions of the cell suspensions were plated on MRS and incubated anaerobically at 37° C. overnight to test viability. To a second set of replicates, TRIzol (15596018; Life Technologies) was added directly to washed cells for RNA extraction.
Mammalian cell culture RT-qPCR for gene expression: Total RNA from mammalian co-culture samples were extracted via the TRIzol method. Total RNA (1 μg) was treated with Turbo DNAse (EN0521; Thermo Fisher) to remove genomic DNA, then used for reverse transcription producing cDNA, performed according to manufacturer protocol (High Capacity Complementary DNA Reverse Transcription Kit; Applied Biosystems). Gene list and primer sequences can be found in Table 2. Real-time PCR was performed with the Quantistudio 3 qPCR thermocycler (Applied Biosystems) using SyberGreen master mix (Life Technologies). Actin and GADPH were used as house-keeping genes. Analysis was performed using Quantistudio Design and Analysis Software v.1.4.3.

pooled human milk SIgA [4] = assay: Binding of SIgA to bacteria by flow cytometry
Procedure: Binding of sIgA to bacteria. Bacteria from Table 1 were resuspended in 0.8% saline at a concentration of 1×10^7 CFU/mL. SIgA was then added at 0, 10, 100, 500 and 1000 μg per 1×10^7 colony forming units (CFU) of bacteria and incubated at 24° C. for 30 min. Following incubation, bacteria were pelleted at 14000×g for 4 min and washed with saline twice to remove non-adherent SIgA.
Flow cytometry and immunofluorescence: To measure binding cells were fixed using 4% w/v paraformaldehyde for 30 min, washed with PBS, then incubated with 1% bovine serum albumin (BSA) blocking buffer for 1 h. Cells were stained with 1/100 dilution SYTOT™ 9 (S34854, ThermoFisher) for live cells and goat anti-human IgA conjugated to Alexa 647 fluorophore using 1/50 dilution in 1% BSA (ab96998, Abcam). For flow cytometry, all samples were acquired and analyzed on a FACScan flow cytometer (BD Biosciences, Mountain View, Calif.) using the CellQuest software program. For live/dead analyses following in vitro digestion, cells were stained with SYTOT™ 9 (1/100 dilution) for live cells and propidium iodine (1/1000 dilution) for dead cells or cells with compromised membranes.

[5] = colonocytes, listed as B. infantis

Bifidobacterium longum ssp. infantis ATCC 15697
increase of colonization in the gastrointestinal tract with SIgA association ([1]; 5-6 week old BALBc mice fed water): 4 log-scale | increase of colonization in the gastrointestinal tract with SIgA association ([1]; mice supplemented with an HMO (10% 2′ fucosyllactose)): 5 log-scale | higher concentration in feces when pre-incubated with milk SIgA ([1]; one day post oral administration, vs not pre-incubated): 10 × | ability to bind to pooled human milk SIgA (pooled human milk SIgA [2]): 92.4% | increase in SIgA binding when first grown on an HMO substrate (pooled human milk SIgA [2]; HMO-grown): 4.8% | change of barrier gene MUCSAC expression when SIgA is first complexed ([3]; colonocytes, 1000 μg SIgA per 1e7 CFU): decreased | change of IL-8 expression when SIgA is first complexed to the bacteria [3, 5]: reduces the expression | change of JAM expression when SIgA is first complexed [3, 5]: increasing the expression | change of IL-8 expression when SIgA is first complexed to the bacteria ([3]; colonocytes, listed as BLI): increased | change of JAM expression when SIgA is first complexed ([3]; colonocytes, listed as BLI): decreased | change of Claudin 1 expression with SIgA association ([3]; mammalian colonocytes): increasing the expression | change of Occludin expression with SIgA association ([3]; mammalian colonocytes): increasing the expression | binding of a heterogeneous pool of SIgA (pooled human milk SIgA [4]; 0-1000 μg SIgA per 1e7 CFU): concentration dependent | association to SIgA when first grown on 2′FL (pooled human milk SIgA [4]; 1% 2′FL in the final media): increased association to SIgA
